Common to all, as to type: functional
What all share (conditions): read-out: IZ

Experiment [1] relates to Penicillium digitatum. The experiment in a line: Antimicrobial activity against Penicillium digitatum at 40 ug.
The subject of experiment [2] is Escherichia coli. Nature of the experiment: Antimicrobial activity against Escherichia coli B ATCC 11303 at 400 ug.
Experiment [3] has as its system Bacillus subtilis. The experiment in a line: Antimicrobial activity against Bacillus subtilis ATCC 6633 at 400 ug.
In experiment [4] the test system is Saccharomyces cerevisiae. Nature of the experiment: Antimicrobial activity against Saccharomyces cerevisiae at 400 ug.
Experiment [5] deals with Penicillium digitatum. The experiment in a line: Antimicrobial activity against Penicillium digitatum at 24 ug.
For experiment [6], the system named is Saccharomyces cerevisiae. The experiment in a line: Antimicrobial activity against Saccharomyces cerevisiae at 24 ug.
The test system of experiment [7] is Bacillus subtilis. The experiment in a line: Antimicrobial activity against Bacillus subtilis ATCC 6633 at 0.6 ug.
Experiment [8] deals with Escherichia coli. Nature of the experiment: Antimicrobial activity against Escherichia coli B ATCC 11303 at 6 ug.

The structures appear in SMILES notation. Structures can show the parent of a compound that is named as a salt.

`COC(=O)c1c(C)cc(O)c(C)c1O` [ATRARIC ACID]: the zone of inhibition at 40 µg/disc in experiment [1] amounted to 29 mm. Besides, the zone of inhibition at 400 µg/disc in experiment [2] amounted to 15 mm; in experiment [3], 17 mm; in experiment [4] it was 18 mm.
In the case of `CCCCC[C@@H](O)[C@H]1C(=O)O[C@H](C)[C@@H](O)/C=C/C=C/C=C/C=C/C=C(\C)[C@@H](O)C[C@H](O)C[C@H](O)C[C@H](O)C[C@H](O)C[C@H](O)C[C@@H]1O` [FILIPIN], the zone of inhibition at 24 µg/disc came to 29 mm in experiment [5] and 21 mm in experiment [6].
`CN[C@@H]1[C@H](O[C@H]2[C@H](O[C@H]3[C@H](O)[C@@H](O)[C@H](N=C(N)N)[C@@H](O)[C@@H]3N=C(N)N)O[C@@H](C)[C@]2(O)C=O)O[C@@H](CO)[C@H](O)[C@H]1O` [STREPTOMYCIN SULFATE]: the zone of inhibition at 0.6 µg/disc in experiment [7] amounted to 16 mm. For the same compound, the zone of inhibition at 6 µg/disc in experiment [8] stood at 17 mm.

(Values after ChEMBL document CHEMBL1151646, “Methyl -Orcinolcarboxylate and Depsides from Parmelia furfuracea” (1985).)
